In US20180251483A1, “THIOCYANATE SALTS FOR ANTI-INFLAMMATION” (National Jewish Health, priority 2015, published 2018):

Legend:
[1] = stated as known; cited from earlier work
[2] = Oxygen formation from H2O2 followed with an oxygen selective electrode (catalase to haloperoxidase conversion); format: biochemical
Method: FIG. 5 is a bar graph showing the inhibition of oxygen formation by 10150-Cl in the presence of hydrogen peroxide and thiocyanate. Bins (left to right); 25 uM Cmpd 10150; 50 uM Cmpd 10150. Legend: control (open); SCN 1 mM (closed).
It was examined whether SCN was being utilized as a substrate in a peroxidase reaction by looking at the inhibition of oxygen formation. If 10150-Cl was utilizing SCN along with H2O2, then no oxygen would be generated (see Eq 2).
To examine the rate of oxygen formation in the presence of 10150-Cl, H2O2 in the presence or absence of NaSCN, one utilized an oxygen selective electrode with a free radical analyzer (WPI). Changes in pA were converted to O2 using the difference of the O2 concentration in a saturated solution minus that of the solution made anaerobic by the addition of dithionite.
Experimental Conditions: Conversion of catalase activity to haloperoxidase activity of 10150-Cl with the addition of thiocyanate (SCN). Oxygen formation was followed with an oxygen selective electrode in a reaction mixture containing 10150 at either 25 or 50 μM and 1 mM H2O2 in the presence or absence of 1 mM SCN.

[3] = tested on: rat brain homogenates; experiment: Iron/ascorbate-initiated lipid peroxidation of rat brain homogenates, TBARS assay; format: biochemical; settings: comparison of the two salts
Method: Legend: Cmpd 10150-Cl (circles); Cmpd 10150-SCN (boxes).
The ability of the salts of the invention to inhibit lipid peroxidation was assessed as described by Ohkawa et al. (Anal. Biochem. 95:351 (1979)) and Yue et al. (J. Pharmacol. Exp. Ther. 263:92 (1992)). Iron and ascorbate can be used to initiate lipid peroxidation in tissue homogenates and the formation of thiobarbituric acid reactive species (TBARS) measured. Lipid peroxidation causes cell damage by radicals, which destroys lipids in cell membranes resulting in oxidative and inflammatory injury.
Both the chloride and thiocyanate salts of 10150 have similar lipid peroxide inhibition. Lipid peroxidation of rat brain homogenates was initiated with iron/ascorbate in the presence or absence of various concentrations of 10150-Cl or 10150-SCN. Lipid peroxidation was quantified using the TBARS assay with malondialdehyde standards. The data was normalized and curve fitted to determine the inhibitory concentrations that decreased lipid peroxidation by one-half (IC50).

[4] = Catalase activity: H2O2 consumption followed with a hydrogen peroxide selective electrode; format: biochemical
Method: FIG. 4 is a line graph showing effects of 1 mM NaSCN on the consumption of H2O2 by 10150-Cl at a fixed concentration of 12.5 μM and various H2O2 concentrations. Legend: Cmpd 10150-Cl (circles); Cmpd 10150-Cl+SCN (1 mM) (triangles).
To test whether SCN was acting as a competing substrate in the catalase activity one examined the change in 10150-Cl catalase activity by following the disappearance of H2O2 over time with a H2O2 selective electrode in the presence or absence of 1 mM NaSCN.
Experimental Conditions: Effects of 1 mM NaSCN on the consumption of H2O2 by 10150-Cl was investigated at a fixed concentration of 12.5 μM and various H2O2 concentrations. H2O2 consumption was followed over time with a hydrogen peroxide selective electrode (HPO) using a free radical analyzer (WPI). Changes in pA were converted to H2O2 using a 5 point H2O2 standard curve. The data was fitted as a linear curve using Prizm software. The rate constant for 10150-Cl was 0.09±0.004 min^−1 and in the presence of 1 mM NaSCN was decreased to 0.02±0.004 min^−1.

[5] = tested on: Human bronchial epithelial cells (HBE); experiment: Hypochlorite-induced injury of human bronchial epithelial cells, MTT viability assay; format: cell-based; settings: 250 μM HOCl for 30 minutes, 10 μM compound, MTT 24 hours post exposure, compared to 10150-Cl or NaSCN
Method: Bins (left to right): PBS (phosphate buffered saline); 250 uM HOCl; 250 uM HOCl+10 uM 10150-Cl; 250 uM HOCL+10 uM 10150-SCN; 250 uM HOCL+10 uM NaSCN.
Human bronchial epithelial cells (HBE) were exposed to 250 μM of hypochlorite (HOCl) for 30 minutes in the presence or absence of 10 μM of 10150-Cl, 10150-SCN, or NaSCN and cell injury was assessed 24 hours post HOCl exposure using the MTT viability assay.

Compound	catalase activity (dismutation of hydrogen peroxide into oxygen and water) [1]	oxygen formation on addition of SCN ([2]; 10150 at 25 or 50 μM, 1 mM H2O2, presence vs absence of 1 mM SCN)	haloperoxidase activity ([2]; thiocyanate as substrate, generating HOSCN)	IC50 of lipid peroxidation (TBARS formation) [3]	rate constant of H2O2 consumption in the presence of 1 mM NaSCN ([4]; 12.5 μM compound, various H2O2 concentrations, 1 mM NaSCN) [min⁻¹]	rate constant of H2O2 consumption ([4]; 12.5 μM compound, various H2O2 concentrations, absence of NaSCN) [min⁻¹]	protection against hypochlorite-mediated epithelial cell injury [5]	catalase activity ([4]; comparison of the 10150-Cl and SCN salts)
CCN1C=CN(CC)C1=C1C2=NC(=C(c3n(CC)cc[n+]3CC)C3=NC(=C(c4n(CC)cc[n+]4CC)c4ccc([n-]4)C(c4n(CC)cc[n+]4CC)=C4C=CC1=N4)C=C3)C=C2.[Cl-].[Cl-].[Cl-].[Cl-].[Cl-].[Mn+3] [10150-Cl, [5,10,15,20 tetrakis(1,3-diethylmidazolium-2-yl)porphyrinato] manganese (III) pentachloride]	known to possess catalase activity	dramatically inhibited the formation of oxygen	has haloperoxidase activity	not statistically different	0.02 ± 0.004	0.09 ± 0.004	–	–
[5,10,15,20 tetrakis(1,3-diethylimidazolium-2-yl)porphyrinato] manganese (III) pentathiocyanate [10150-SCN]	–	–	–	not statistically different	–	–	synergistic effects	lower catalase activity than 10150-Cl salt
